Reference: US20220280661A1, “GLUCOCORTICOID RECEPTOR RADIOLIGANDS AND METHODS FOR THEIR PREPARATION AND USE” (The Regents of the University of California, priority 2019, published 2022)

Molecular target: T1, GR (Mus musculus, UniProt P06537)
T1 construct: from tissue; host or cells: tissues of C57BL6/J mice (intact or adrenalectomized), in vivo
T1 sequence (P06537 1-792): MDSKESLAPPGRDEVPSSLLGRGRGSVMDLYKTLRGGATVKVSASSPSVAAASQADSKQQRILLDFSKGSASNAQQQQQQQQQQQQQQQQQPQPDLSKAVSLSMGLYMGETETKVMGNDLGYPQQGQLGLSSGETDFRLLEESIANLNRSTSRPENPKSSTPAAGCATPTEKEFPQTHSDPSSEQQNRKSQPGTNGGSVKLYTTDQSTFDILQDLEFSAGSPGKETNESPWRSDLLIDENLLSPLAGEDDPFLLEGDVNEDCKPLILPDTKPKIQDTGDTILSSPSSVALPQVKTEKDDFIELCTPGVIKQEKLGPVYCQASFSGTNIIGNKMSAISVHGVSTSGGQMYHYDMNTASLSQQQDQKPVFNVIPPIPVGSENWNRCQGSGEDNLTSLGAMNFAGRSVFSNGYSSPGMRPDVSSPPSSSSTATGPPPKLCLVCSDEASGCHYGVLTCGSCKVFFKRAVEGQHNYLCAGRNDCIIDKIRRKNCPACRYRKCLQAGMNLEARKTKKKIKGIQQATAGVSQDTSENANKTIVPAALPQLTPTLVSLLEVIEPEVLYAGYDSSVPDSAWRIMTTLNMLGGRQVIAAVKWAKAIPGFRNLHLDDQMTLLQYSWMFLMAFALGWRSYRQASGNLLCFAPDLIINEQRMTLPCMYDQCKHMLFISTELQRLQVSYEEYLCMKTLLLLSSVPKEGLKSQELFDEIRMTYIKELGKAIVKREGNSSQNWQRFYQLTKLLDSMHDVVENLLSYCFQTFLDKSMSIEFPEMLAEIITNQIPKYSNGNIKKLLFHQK
Assay: 11C radiotracer biodistribution with dexamethasone or Dex-CD blocking
Type: in vivo
Details: 20 min after injection
Procedure: Animal Studies. All animal experiments were performed under the approval of the Institutional Animal Care and Use Committee (IACUC) at UCSF. C57BL6/J mice (4-6 weeks) were purchased from Charles River. All the mice were housed in a dedicated vivarium with free access to food and water. […] Adrenalectomized mice were purchased from Charles River and provided drinking water supplemented with NaCl (aq) per instructions until the time of the tracer biodistribution study.
Biodistribution Studies. Mice were euthanized after radiotracer (7.4-18.5 MBq in 100-150 μL) injection with CO2 (g) asphyxiation and dissected at dedicated time points post injection. The blood and tissues were collected, washed, dried, and weighed. The activity of each tissue was measured with a gamma counter. All data was decay corrected. PRISM software was used to express a percentage (% ID/g) of the injected dose per gram of tissue.
The P value indicates the result of an unpaired, two-tailed Student's t test between the respective treatment group and vehicle (n=5/group).
Table 10 summarizes biodistribution data collected 20 minutes after injection of ^11C-YJH02 among two treatment arms receiving vehicle or one intraperitoneal injection of the water-soluble dexamethasone-cyclodextrin complex at 10 mg/kg one hour prior to radiotracer administration. The P value indicates the result of an unpaired, two-tailed Student's t test between the respective treatment group and vehicle (n=5/group).

[1] = mice given Dex-CD 10 mg/kg intraperitoneal one hour prior to radiotracer
[2] = mice given dexamethasone 50 mg/kg via gavage once daily for three days

CC1=CC(C)(C)Nc2ccc3c(c21)C(Cc1ccc(F)cc1)Oc1cccc(O[11CH3])c1-3 (racemic) [(±)-^11C-YJH08]
radiotracer uptake, Adrenal [1]: 5.67 ± 2.6 % ID/g | radiotracer uptake, Blood [1]: 3.72 ± 0.2 % ID/g | radiotracer uptake, Bone [1]: 1.95 ± 1.6 % ID/g | radiotracer uptake, Brain [1]: 1.40 ± 0.2 % ID/g | radiotracer uptake, Brown Fat [1]: 8.68 ± 2.4 % ID/g | radiotracer uptake, Heart [1]: 5.95 ± 0.7 % ID/g | radiotracer uptake, Kidney [1]: 4.11 ± 0.4 % ID/g | radiotracer uptake, Lg. Int. [1]: 1.38 ± 0.3 % ID/g | radiotracer uptake, Liver [1]: 12.47 ± 0.8 % ID/g | radiotracer uptake, Lung [1]: 5.09 ± 0.7 % ID/g | radiotracer uptake, Muscle [1]: 1.16 ± 0.2 % ID/g | radiotracer uptake, Pancreas [1]: 3.14 ± 0.3 % ID/g | radiotracer uptake, Sm. Int. [1]: 15.72 ± 3.2 % ID/g | radiotracer uptake, Spleen [1]: 5.72 ± 0.7 % ID/g | radiotracer uptake, Stomach [1]: 1.79 ± 0.8 % ID/g | radiotracer uptake, Adrenal [2]: 9.24 ± 3.6 % ID/g | radiotracer uptake, Blood [2]: 4.58 ± 1.9 % ID/g | radiotracer uptake, Bone [2]: 1.06 ± 0.4 % ID/g | radiotracer uptake, Brain [2]: 1.02 ± 0.3 % ID/g | radiotracer uptake, Brown Fat [2]: 4.58 ± 2.3 % ID/g | radiotracer uptake, Heart [2]: 3.86 ± 1.6 % ID/g | radiotracer uptake, Kidney [2]: 2.96 ± 0.9 % ID/g | radiotracer uptake, Lg. Int. [2]: 1.01 ± 0.5 % ID/g | radiotracer uptake, Liver [2]: 5.22 ± 2.7 % ID/g | radiotracer uptake, Lung [2]: 3.39 ± 1.6 % ID/g | radiotracer uptake, Muscle [2]: 0.84 ± 0.4 % ID/g | radiotracer uptake, Pancreas [2]: 1.52 ± 0.7 % ID/g | radiotracer uptake, Sm. Int. [2]: 30.24 ± 12.7 % ID/g | radiotracer uptake, Spleen [2]: 3.71 ± 1.5 % ID/g | radiotracer uptake, Stomach [2]: 0.71 ± 0.2 % ID/g | radiotracer uptake, Adrenal (mice given vehicle): 17.63 ± 2.9 % ID/g | radiotracer uptake, Blood (mice given vehicle): 4.82 ± 0.4 % ID/g | radiotracer uptake, Bone (mice given vehicle): 1.46 ± 0.5 % ID/g | radiotracer uptake, Brain (mice given vehicle): 1.98 ± 0.1 % ID/g | radiotracer uptake, Brown Fat (mice given vehicle): 9.52 ± 0.9 % ID/g | radiotracer uptake, Heart (mice given vehicle): 7.06 ± 0.8 % ID/g | radiotracer uptake, Kidney (mice given vehicle): 7.22 ± 0.8 % ID/g | radiotracer uptake, Lg. Int. (mice given vehicle): 1.70 ± 0.3 % ID/g | radiotracer uptake, Liver (mice given vehicle): 16.25 ± 0.8 % ID/g | radiotracer uptake, Lung (mice given vehicle): 6.80 ± 0.7 % ID/g | radiotracer uptake, Muscle (mice given vehicle): 1.85 ± 0.1 % ID/g | radiotracer uptake, Pancreas (mice given vehicle): 4.64 ± 0.1 % ID/g | radiotracer uptake, Sm. Int. (mice given vehicle): 28.72 ± 14.5 % ID/g | radiotracer uptake, Spleen (mice given vehicle): 7.28 ± 1.8 % ID/g | radiotracer uptake, Stomach (mice given vehicle): 2.62 ± 1.5 % ID/g
